# Laboratory results: US8420648B2, “Polymorphs of brimonidine pamoate” (Bausch & Lomb Incorporated, priority 2008, dated 2013)
# Where two headings read alike, the source gives them in different places.
# Key:
# [1] = Competitive slurries of brimonidine hemi-pamoate forms; format: physicochemical; conditions: for XRPD (1 week): form: competitive slurry of Forms A, RT; for relative stability (conclusion from competitive slurries): competitive slurries in THF or water, one week
# [2] = 88% RH; for Visual inspection (2 week): 2 weeks, inspected for deliquescence
# Procedure: This solution results in 88% RH environment. After two weeks of storage the crystalline form was determined by XRPD and solid inspected for deliquescence.
# [3] = ambient conditions
# [4] = Procedure: After one week of exposure, the samples were analyzed by XRPD to check for form conversion and HPLC analysis to check for potential degradation. […] Ambient • Detection: 248 nm • Diluent: MeOH • Injection Volume: 5 μl
# [5] = ambient
# Source text: Following one week intervals, samples were isolated by centrifugation and dried in vacuo at ambient temperature overnight and analyzed by XRPD to check for polymorphic form conversion.
# [6] = for XRPD pattern of the solids following moisture sorption analysis: after moisture sorption analysis; for hygroscopicity (in words) / observation upon desorption: moisture sorption analysis; for observation upon desorption: desorption scan; for water adsorbed at 60% RH / water adsorbed at 90% RH: 25° C.
# Procedure: Approximately 10 mg of the sample was analyzed in a Pyrex bulb. Each scan utilized a step size of 10% RH and a maximum equilibration time of four hours per point. The sample was dried for one hour at 80° C. following the desorption scan to obtain the dry sample weight and then it was analyzed by XRPD.
# [7] = cited from earlier work
# [8] = stored uncapped at 60° C., 1 week
# [9] = 60° C., sample exposed for 6 days (footnote)
Molecule,"XRPD (1 week): form ([1]; B, C and D in THF (1.0 mL))","XRPD (1 week): form ([1]; C, D and E in water (1.0 mL))",Visual inspection (2 week) [2],form by XRPD after overnight slurry in water [3],"solid state stability after one week of storage at 60° C. (in words, HPLC and XRPD) ([4]; 60° C., one week)","HPLC (% purity) after thermal stress [4, 8] [%]","XRPD (1 week): crystallinity [4, 8]","XRPD (1 week): form [4, 8]",XRPD pattern of the solids following moisture sorption analysis [6],hygroscopicity (in words) [6],observation upon desorption [6],water adsorbed at 60% RH ([6]; moisture sorption) [wt %],water adsorbed at 90% RH ([6]; moisture sorption) [wt %],other results
"Brc1c(NC2=NCCN2)ccc2nccnc12.Brc1c(NC2=NCCN2)ccc2nccnc12.O=C(O)c1cc2ccccc2c(Cc2c(O)c(C(=O)O)cc3ccccc23)c1O [Form A, brimonidine hemi-pamoate]",Form E,Form F,No deli-,Form B,stable by XRPD and HPLC,100.0,Crystalline,(Form A),consistent with the Form A starting material,slightly hygroscopic,no hysteresis or indication of hydrate formation,2.2,2.5,"stability after two weeks of storage at elevated relative humidity (in words) [2]: no sign of deliquescence or change in crystalline form; Form by XRPD (1 week) ([5]; slurry in THF 1 mL, 1 week): Form E; Form by XRPD (3 weeks) ([5]; slurry in water (magnetic stirring) 1 mL, 3 weeks): Form B"
"Brc1c(NC2=NCCN2)ccc2nccnc12.Brc1c(NC2=NCCN2)ccc2nccnc12.O=C(O)c1cc2ccccc2c(Cc2c(O)c(C(=O)O)cc3ccccc23)c1O [Form B, brimonidine hemi-pamoate]",Form E,,,,,100.0,Crystalline,(Form B),consistent with Form B,,,5.4,5.8,"solid state stability after one week of storage at 60° C. (in words, HPLC and XRPD) [4]: no degradation or signs of form conversion; water content stabilized between 20-90% RH [6]: 5-6 wt %"
"Brc1c(NC2=NCCN2)ccc2nccnc12.Brc1c(NC2=NCCN2)ccc2nccnc12.O=C(O)c1cc2ccccc2c(Cc2c(O)c(C(=O)O)cc3ccccc23)c1O [Form C, brimonidine hemi-pamoate]",Form E,Form F,No deli-,mixture of Forms B and F,no significant degradation or signs of form conversion,97.9,Semi-cryst.,(Form C),consistent with Form C,moderately hygroscopic,no hysteresis or indication of hydrate formation,4.6,13.0,
"Brc1c(NC2=NCCN2)ccc2nccnc12.Brc1c(NC2=NCCN2)ccc2nccnc12.O=C(O)c1cc2ccccc2c(Cc2c(O)c(C(=O)O)cc3ccccc23)c1O [Form D, brimonidine hemi-pamoate]",Form E,Form F,,mixture of Forms B and F,no significant degradation or signs of form conversion,96.7,Crystalline,(Form D),consistent with Form D,slightly hygroscopic,no hysteresis or indication of hydrate formation,1.8,2.6,
"Brc1c(NC2=NCCN2)ccc2nccnc12.Brc1c(NC2=NCCN2)ccc2nccnc12.O=C(O)c1cc2ccccc2c(Cc2c(O)c(C(=O)O)cc3ccccc23)c1O [Form E, brimonidine hemi-pamoate]",,Form F,,mixture of Forms B and F,no significant degradation or signs of form conversion,,,,consistent with Form E,slightly hygroscopic,no hysteresis or indication of hydrate formation,3.1,4.2,"relative stability (conclusion from competitive slurries) [1]: most stable anhydrate form; HPLC (% purity) after thermal stress [4, 9]: 100.0%; XRPD (1 week): crystallinity [4, 9]: Semi-cryst.; XRPD (1 week): form [4, 9]: (Form E)"
"Brc1c(NC2=NCCN2)ccc2nccnc12.Brc1c(NC2=NCCN2)ccc2nccnc12.O=C(O)c1cc2ccccc2c(Cc2c(O)c(C(=O)O)cc3ccccc23)c1O [Form F, brimonidine hemi-pamoate]",,,No deli-,mixture of Forms B and F,,,,,consistent with Form F,,,,,"relative stability (conclusion from competitive slurries) [1]: more stable in water than Forms A, C, D and E; stability after two weeks of storage at elevated relative humidity (in words) [2]: no sign of deliquescence or change in crystalline form; water adsorbed at 40% RH ([6]; moisture sorption, 40% RH): approximately 1.8 molar equivalent"
"Brc1c(NC2=NCCN2)ccc2nccnc12 [brimonidine freebase, 5-bromo-6-(2-imidazolidinylideneamino)quinoxaline]",,,,,,,,,,,,,,solubility in water (in words) ([7]; water): negligible
brimonidine tartrate,,,,,,,,,,,,,,solubility in a pH 7.0 phosphate buffer ([7]; pH 7.0 phosphate buffer): 2.4 mg/mL; solubility in water ([7]; water): 34 mg/mL
